Experimental data from paper PMC10599993, “The PTPN2/PTPN1 inhibitor ABBV-CLS-484 unleashes potent anti-tumour immunity” (Nature, 2023).

Columns and labels:
Test in all cases: biochemical
Set-up in all cases: Kinase selectivity panel, IC50 of AC484 (Supplementary Table 1)
ITK = ITK (Homo sapiens, UniProt Q08881)
PKCzeta = molecular target: T1, PKCzeta (Homo sapiens, UniProt Q05513)
T1 construct: gene PRKCZ

MAP4K3 = MAP4K3 (Homo sapiens, UniProt Q8IVH8)
Fyn = Fyn (Homo sapiens, UniProt P06241)
MAP2K3 = MAP2K3 (Homo sapiens, UniProt P46734)
CAMK1D = CAMK1D (Homo sapiens, UniProt Q8IU85)
Dyrk1A = Dyrk1A (Homo sapiens, UniProt Q13627)
JAK2 = JAK2 (Homo sapiens, UniProt O60674)
Aurora 1 = molecular target: T2, Aurora 1 (Homo sapiens, UniProt Q96GD4)
T2 construct: gene AURKB
T2 sequence (Q96GD4 whole entry): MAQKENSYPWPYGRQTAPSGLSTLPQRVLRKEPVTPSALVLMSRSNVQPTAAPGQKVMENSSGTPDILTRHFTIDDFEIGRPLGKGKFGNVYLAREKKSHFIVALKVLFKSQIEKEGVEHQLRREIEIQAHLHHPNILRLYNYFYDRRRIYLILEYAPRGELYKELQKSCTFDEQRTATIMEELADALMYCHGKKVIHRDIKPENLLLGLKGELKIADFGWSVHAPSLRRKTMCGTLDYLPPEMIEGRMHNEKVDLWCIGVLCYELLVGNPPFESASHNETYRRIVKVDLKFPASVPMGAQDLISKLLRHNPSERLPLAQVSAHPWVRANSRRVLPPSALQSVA

MINK1 = MINK1 (Homo sapiens, UniProt Q8N4C8)
Syk = Syk (Homo sapiens, UniProt P43405)
MAP4K4 = MAP4K4 (Homo sapiens, UniProt O95819)
Sequence of MAP4K4 (O95819 whole entry): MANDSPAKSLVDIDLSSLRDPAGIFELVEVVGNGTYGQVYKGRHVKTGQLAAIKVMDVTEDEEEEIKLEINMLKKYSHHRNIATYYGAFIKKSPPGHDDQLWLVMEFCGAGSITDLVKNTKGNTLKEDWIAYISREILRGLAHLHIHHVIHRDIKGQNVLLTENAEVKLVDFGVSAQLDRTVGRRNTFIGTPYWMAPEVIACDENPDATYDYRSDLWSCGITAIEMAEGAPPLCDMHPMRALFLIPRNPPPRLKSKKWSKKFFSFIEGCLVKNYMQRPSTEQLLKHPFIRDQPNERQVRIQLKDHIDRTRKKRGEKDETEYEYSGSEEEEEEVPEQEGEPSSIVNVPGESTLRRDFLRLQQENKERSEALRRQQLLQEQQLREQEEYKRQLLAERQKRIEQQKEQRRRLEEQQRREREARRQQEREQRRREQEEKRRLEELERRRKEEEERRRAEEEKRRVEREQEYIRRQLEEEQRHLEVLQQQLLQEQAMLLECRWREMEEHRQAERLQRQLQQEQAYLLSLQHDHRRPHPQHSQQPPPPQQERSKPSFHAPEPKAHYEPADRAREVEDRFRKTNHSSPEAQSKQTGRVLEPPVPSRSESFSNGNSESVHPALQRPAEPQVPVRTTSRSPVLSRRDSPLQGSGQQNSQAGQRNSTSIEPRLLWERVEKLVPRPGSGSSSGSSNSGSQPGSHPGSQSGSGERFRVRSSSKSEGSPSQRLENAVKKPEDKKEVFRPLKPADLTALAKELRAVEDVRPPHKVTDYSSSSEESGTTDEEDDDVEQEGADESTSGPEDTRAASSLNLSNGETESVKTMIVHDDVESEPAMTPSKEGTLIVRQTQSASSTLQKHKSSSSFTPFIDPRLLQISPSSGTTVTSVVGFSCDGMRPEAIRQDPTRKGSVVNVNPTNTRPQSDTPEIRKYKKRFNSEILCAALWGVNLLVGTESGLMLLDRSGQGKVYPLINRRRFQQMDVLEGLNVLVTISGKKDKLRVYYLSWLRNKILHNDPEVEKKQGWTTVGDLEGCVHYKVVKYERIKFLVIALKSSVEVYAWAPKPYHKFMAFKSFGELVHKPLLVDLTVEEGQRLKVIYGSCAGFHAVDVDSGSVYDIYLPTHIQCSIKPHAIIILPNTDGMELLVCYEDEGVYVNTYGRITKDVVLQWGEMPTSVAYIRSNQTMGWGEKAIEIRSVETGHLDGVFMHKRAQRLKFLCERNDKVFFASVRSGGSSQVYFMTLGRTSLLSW

TXK = TXK (Homo sapiens, UniProt P42681)
LYN-B = molecular target: T3, LYN-B (Homo sapiens, UniProt P07948)
T3 construct: isoform B

MEK1 = molecular target: T4, MEK1 (Homo sapiens, UniProt Q02750)
T4 construct: gene MAP2K1
T4 sequence (Q02750 whole entry): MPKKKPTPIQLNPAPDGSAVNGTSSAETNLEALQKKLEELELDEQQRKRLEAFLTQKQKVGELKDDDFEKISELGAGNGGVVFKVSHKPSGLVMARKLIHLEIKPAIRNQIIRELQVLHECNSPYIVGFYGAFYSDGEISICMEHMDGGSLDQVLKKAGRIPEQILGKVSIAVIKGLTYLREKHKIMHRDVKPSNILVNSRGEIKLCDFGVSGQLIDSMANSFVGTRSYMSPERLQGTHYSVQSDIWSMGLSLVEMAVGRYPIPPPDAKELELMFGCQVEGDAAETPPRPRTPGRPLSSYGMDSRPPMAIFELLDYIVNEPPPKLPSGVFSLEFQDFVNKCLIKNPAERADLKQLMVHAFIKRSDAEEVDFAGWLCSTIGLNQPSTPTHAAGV

Rsk2 = molecular target: T5, Rsk2 (Homo sapiens, UniProt P51812)
T5 construct: gene RPS6KA3

CAMKK2 = CAMKK2 (Homo sapiens, UniProt Q96RR4)
JAK3 = JAK3 (Homo sapiens, UniProt P52333)
Plk3 = Plk3 (Homo sapiens, UniProt Q9H4B4)
IKKE = molecular target: T6, IKKE (Homo sapiens, UniProt Q14164)
T6 construct: gene IKBKE

BMX = BMX (Homo sapiens, UniProt P51813)
Sequence of BMX (P51813 whole entry): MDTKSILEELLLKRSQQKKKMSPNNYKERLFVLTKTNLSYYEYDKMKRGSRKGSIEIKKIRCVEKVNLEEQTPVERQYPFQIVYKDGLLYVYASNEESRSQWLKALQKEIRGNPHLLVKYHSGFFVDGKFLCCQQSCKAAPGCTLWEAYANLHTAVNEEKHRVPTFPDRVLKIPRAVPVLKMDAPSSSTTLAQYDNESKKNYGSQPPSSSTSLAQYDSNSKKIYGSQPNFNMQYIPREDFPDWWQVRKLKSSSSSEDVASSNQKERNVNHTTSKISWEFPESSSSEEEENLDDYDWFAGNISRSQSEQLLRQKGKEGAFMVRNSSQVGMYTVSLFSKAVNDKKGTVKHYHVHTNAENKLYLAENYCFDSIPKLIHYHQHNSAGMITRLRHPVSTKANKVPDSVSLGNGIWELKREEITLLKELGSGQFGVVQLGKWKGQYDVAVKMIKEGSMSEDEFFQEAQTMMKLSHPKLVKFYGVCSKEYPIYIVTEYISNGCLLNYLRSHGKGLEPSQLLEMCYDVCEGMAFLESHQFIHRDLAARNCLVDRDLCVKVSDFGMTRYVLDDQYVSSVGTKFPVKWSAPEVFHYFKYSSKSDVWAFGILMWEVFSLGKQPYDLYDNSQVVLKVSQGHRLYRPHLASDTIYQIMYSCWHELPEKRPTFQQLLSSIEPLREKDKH

BRAF = BRAF (Homo sapiens, UniProt P15056)
MAP4K2 = MAP4K2 (Homo sapiens, UniProt Q12851)
Rock1 = Rock1 (Homo sapiens, UniProt Q13464)
Akt1 = Akt1 (Homo sapiens, UniProt P31749)
PKCepsilon = molecular target: T7, PKCepsilon (Homo sapiens, UniProt Q02156)
T7 construct: gene PRKCE
T7 sequence (Q02156 whole entry): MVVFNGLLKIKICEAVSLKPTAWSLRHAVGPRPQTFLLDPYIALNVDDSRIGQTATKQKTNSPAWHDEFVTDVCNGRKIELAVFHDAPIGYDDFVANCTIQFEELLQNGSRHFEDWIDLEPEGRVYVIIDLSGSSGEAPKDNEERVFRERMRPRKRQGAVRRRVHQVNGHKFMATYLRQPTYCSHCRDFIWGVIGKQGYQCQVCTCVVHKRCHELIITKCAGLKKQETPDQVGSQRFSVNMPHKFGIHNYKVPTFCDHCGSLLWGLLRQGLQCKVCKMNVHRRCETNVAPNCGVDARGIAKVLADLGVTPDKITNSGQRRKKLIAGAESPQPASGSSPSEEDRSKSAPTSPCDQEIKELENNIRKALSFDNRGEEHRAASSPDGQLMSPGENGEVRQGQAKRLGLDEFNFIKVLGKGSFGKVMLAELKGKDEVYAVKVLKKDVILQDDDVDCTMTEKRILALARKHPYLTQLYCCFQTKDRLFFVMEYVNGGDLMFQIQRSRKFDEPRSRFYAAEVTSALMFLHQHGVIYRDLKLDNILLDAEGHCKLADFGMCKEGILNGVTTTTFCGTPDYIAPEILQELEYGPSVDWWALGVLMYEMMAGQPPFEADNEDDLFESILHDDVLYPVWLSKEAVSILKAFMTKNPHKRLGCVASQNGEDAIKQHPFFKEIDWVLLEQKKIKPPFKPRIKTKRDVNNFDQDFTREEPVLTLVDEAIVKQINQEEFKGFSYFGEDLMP

MAP4K1 = MAP4K1 (Homo sapiens, UniProt Q92918)
FGR = FGR (Homo sapiens, UniProt P09769)
Zap70 = Zap70 (Homo sapiens, UniProt P43403)

Measured: IC50

Sequence of ITK (Q08881 whole entry): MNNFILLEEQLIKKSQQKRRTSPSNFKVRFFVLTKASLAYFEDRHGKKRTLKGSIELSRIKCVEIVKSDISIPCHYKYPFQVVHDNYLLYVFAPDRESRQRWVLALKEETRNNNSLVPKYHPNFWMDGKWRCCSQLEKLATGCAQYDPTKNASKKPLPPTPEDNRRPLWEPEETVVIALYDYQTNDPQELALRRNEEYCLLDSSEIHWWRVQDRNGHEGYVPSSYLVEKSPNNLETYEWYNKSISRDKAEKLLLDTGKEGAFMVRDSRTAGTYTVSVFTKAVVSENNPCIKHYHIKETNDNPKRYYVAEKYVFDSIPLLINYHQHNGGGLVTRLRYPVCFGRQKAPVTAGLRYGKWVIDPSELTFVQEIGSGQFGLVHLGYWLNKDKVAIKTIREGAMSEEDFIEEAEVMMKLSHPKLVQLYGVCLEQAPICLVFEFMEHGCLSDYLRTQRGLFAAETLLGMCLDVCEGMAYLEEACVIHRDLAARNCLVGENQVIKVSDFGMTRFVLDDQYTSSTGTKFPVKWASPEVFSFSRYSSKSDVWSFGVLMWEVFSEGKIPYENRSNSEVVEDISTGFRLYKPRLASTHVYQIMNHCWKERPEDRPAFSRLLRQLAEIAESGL
Sequence of MAP4K3 (Q8IVH8 whole entry): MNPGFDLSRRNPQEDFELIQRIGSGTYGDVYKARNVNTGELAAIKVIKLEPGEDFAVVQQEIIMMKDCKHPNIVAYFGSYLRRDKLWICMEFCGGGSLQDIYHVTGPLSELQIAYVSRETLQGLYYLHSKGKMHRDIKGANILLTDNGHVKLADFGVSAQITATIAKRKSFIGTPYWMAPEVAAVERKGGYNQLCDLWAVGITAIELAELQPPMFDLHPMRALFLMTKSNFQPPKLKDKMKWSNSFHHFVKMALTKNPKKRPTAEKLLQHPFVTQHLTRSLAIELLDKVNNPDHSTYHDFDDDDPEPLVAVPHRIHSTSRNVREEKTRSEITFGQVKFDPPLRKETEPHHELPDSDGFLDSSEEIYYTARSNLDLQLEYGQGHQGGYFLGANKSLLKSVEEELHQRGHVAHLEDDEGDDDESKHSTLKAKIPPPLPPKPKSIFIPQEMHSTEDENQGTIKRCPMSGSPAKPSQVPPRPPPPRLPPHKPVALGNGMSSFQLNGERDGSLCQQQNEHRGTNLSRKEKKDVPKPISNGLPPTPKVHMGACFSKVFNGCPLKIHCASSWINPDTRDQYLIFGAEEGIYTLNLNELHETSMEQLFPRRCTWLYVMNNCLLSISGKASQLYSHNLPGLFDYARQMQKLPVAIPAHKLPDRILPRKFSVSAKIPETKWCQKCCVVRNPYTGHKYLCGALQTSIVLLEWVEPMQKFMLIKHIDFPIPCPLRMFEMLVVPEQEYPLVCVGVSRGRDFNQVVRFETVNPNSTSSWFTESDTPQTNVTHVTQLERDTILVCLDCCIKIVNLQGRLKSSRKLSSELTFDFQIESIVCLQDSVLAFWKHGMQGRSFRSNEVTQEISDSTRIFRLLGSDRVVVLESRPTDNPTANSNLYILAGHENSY

CC(C)CCN[C@@H]1CCc2cc(O)c(N3CC(=O)NS3(=O)=O)c(F)c2C1 [AC484, ABBV-CLS-484]
> 10 µM: all assays above
